Laboratory results reported in PubChem BioAssay (NCI).
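Results reflect a 48-hour exposure of cells in 96-well plates to compound at five concentrations. GI50 marks 50% less growth. At the TGI there is no net growth.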

How the values were obtained:
Experiment in all cases: NCI-60 cell line screen, 48 h
[1] = test system: LOX IMVI melanoma
[2] = test system: SF-295 CNS
[3] = test system: NCI-H226 lung
[4] = test system: SR leukemia
[5] = test system: SNB-19 CNS
[6] = test system: SF-268 CNS
[7] = test system: NCI-H23 lung
[8] = test system: UACC-257 melanoma
[9] = test system: MCF7 breast
[10] = test system: NCI/ADR-RES ovarian
[11] = test system: NCI-H522 lung
[12] = test system: TK-10 renal
[13] = test system: HT29 colon
[14] = test system: CCRF-CEM leukemia
[15] = test system: ACHN renal
[16] = test system: RPMI-8226 leukemia
[17] = test system: COLO 205 colon
[18] = test system: SK-MEL-2 melanoma
[19] = test system: SW-620 colon
[20] = test system: MALME-3M melanoma
[21] = test system: CAKI-1 renal
[22] = test system: M14 melanoma
[23] = test system: T-47D breast
[24] = test system: NCI-H460 lung
[25] = test system: KM12 colon
[26] = test system: HS 578T breast
[27] = test system: SK-MEL-5 melanoma
[28] = test system: PC-3 prostate
[29] = test system: MDA-MB-435
[30] = test system: SF-539 CNS
[31] = test system: SN12C renal
[32] = test system: A549 NSCLC
[33] = test system: SK-MEL-28 melanoma
[34] = test system: EKVX NSCLC
[35] = test system: SNB-75 CNS
[36] = test system: HCT-15 colon
[37] = test system: SK-OV-3 ovarian
[38] = test system: IGROV1 ovarian
[39] = test system: HCC-2998 colon
[40] = test system: BT-549 breast
[41] = test system: RXF 393 renal
[42] = test system: UACC-62 melanoma
[43] = test system: OVCAR-5 ovarian
[44] = test system: U251 CNS
[45] = test system: 786-0 renal
[46] = test system: OVCAR-8 ovarian
[47] = test system: OVCAR-4 ovarian
[48] = test system: OVCAR-3 ovarian
[49] = test system: HOP-62 NSCLC
[50] = test system: DU-145 prostate
[51] = test system: A498 renal
[52] = test system: UO-31 renal
[53] = test system: MDA-MB-231 breast
[54] = test system: HCT-116 colon

In the case of `COc1ccc(Nc2[nH]n(C3=Nc4ccccc4Sc4ccccc43)c(=O)c2C#N)cc1`, the GI50 [1] is reported as 1.37 µM, the TGI [1] is reported as 4.27 µM and the GI50 [2] is reported as 0.56 µM. The TGI [2] was 4.34 µM, the GI50 [3] was 1.48 µM and the TGI [3] was 9.81 µM. It also gave a GI50 [4] of 0.518 µM, a TGI [4] of over 100 µM and a GI50 [5] of 3.53 µM. It also gave a TGI [5] of over 100 µM, a GI50 [6] of 2.37 µM and a TGI [6] of 34.3 µM. It also gave a GI50 [7] of 0.637 µM, a TGI [7] of 6.64 µM and a GI50 [8] of 1.13 µM. The TGI [8] was 7.03 µM, the GI50 [9] was 2.18 µM and the TGI [9] was 11.7 µM. The GI50 [10] was 1.43 µM, the TGI [10] was 6.64 µM and the GI50 [11] was 0.4 µM. For the same molecule, the TGI [11] was 3.87 µM, the GI50 [12] was 3.81 µM and the TGI [12] was 41 µM. For the same molecule, the GI50 [13] was 1.99 µM, the TGI [13] was 9.35 µM and the GI50 [14] was 1.19 µM. It also gave a TGI [14] of over 100 µM, a GI50 [15] of 1.15 µM and a TGI [15] of over 100 µM. The GI50 [16] was 1.59 µM, the TGI [16] was over 100 µM and the GI50 [17] was 1.51 µM. For the same molecule, the TGI [17] was 3.35 µM, the GI50 [18] was 1.74 µM and the TGI [18] was 5 µM. For the same molecule, the GI50 [19] was 3.18 µM, the TGI [19] was over 100 µM and the GI50 [20] was 2.67 µM. For the same molecule, the TGI [20] was over 100 µM, the GI50 [21] was 0.255 µM and the TGI [21] was 1.57 µM. For the same molecule, the GI50 [22] was 2.49 µM, the TGI [22] was 9.64 µM and the GI50 [23] was 0.696 µM. It also gave a TGI [23] of 9.22 µM, a GI50 [24] of 1.95 µM and a TGI [24] of 12 µM. The GI50 [25] was 1.64 µM, the TGI [25] was 11.3 µM and the GI50 [26] was 1.98 µM. The TGI [26] was over 100 µM, the GI50 [27] was 0.396 µM and the TGI [27] was 1.48 µM. It also gave a GI50 [28] of 0.676 µM, a TGI [28] of over 100 µM and a GI50 [29] of 1.13 µM. It also gave a TGI [29] of 3.99 µM, a GI50 [30] of 3.37 µM and a TGI [30] of 40.9 µM. It also gave a GI50 [31] of 2.36 µM, a TGI [31] of over 100 µM and a GI50 [32] of 1.62 µM. It also gave a TGI [32] of over 100 µM, a GI50 [33] of 3.87 µM and a TGI [33] of over 100 µM. For the same molecule, the GI50 [34] was 0.781 µM, the TGI [34] was over 100 µM and the GI50 [35] was 1.51 µM. It also gave a TGI [35] of over 100 µM, a GI50 [36] of 1.87 µM and a TGI [36] of 34.1 µM. It also gave a GI50 [37] of 5.9 µM, a TGI [37] of 54.1 µM and a GI50 [38] of 2.79 µM. The TGI [38] was over 100 µM, the GI50 [39] was 2.32 µM and the TGI [39] was 10.5 µM. For the same molecule, the GI50 [40] was 0.494 µM, the TGI [40] was 3.4 µM and the GI50 [41] was 1.73 µM. For the same molecule, the TGI [41] was 9.75 µM, the GI50 [42] was 1.21 µM and the TGI [42] was 11 µM. The GI50 [43] was 10.8 µM, the TGI [43] was over 100 µM and the GI50 [44] was 2.5 µM. It also gave a TGI [44] of 43.3 µM, a GI50 [45] of 2.67 µM and a TGI [45] of 22.3 µM. For the same molecule, the GI50 [46] was 2.01 µM, the TGI [46] was over 100 µM and the GI50 [47] was 0.803 µM. It also gave a TGI [47] of over 100 µM, a GI50 [48] of 1.78 µM and a TGI [48] of 8.64 µM. For the same molecule, the GI50 [49] was 3.06 µM, the TGI [49] was over 100 µM and the GI50 [50] was 2.83 µM. It also gave a TGI [50] of 61.5 µM, a GI50 [51] of 1.39 µM and a TGI [51] of 8.01 µM. For the same molecule, the GI50 [52] was 1.02 µM, the TGI [52] was over 100 µM and the GI50 [53] was 1.39 µM. It also gave a TGI [53] of 11.9 µM, a GI50 [54] of 1.33 µM and a TGI [54] of 12 µM.
